Laboratory results as given in patent publication US8835617B2, “Polynucleotides encoding a human TRIM-Cyp fusion polypeptide, compositions thereof, and methods of using same” (priority 2008, dated 2014).
Where two headings read alike, the source gives them in different places. Marks after values point to notes of the source that are not given here.

Tested on: HIV-1
Excerpt: The timing of HIV-1 infection was changed to allow for a stabilization of engraftment prior to assessment of viral replication.
HIV-1 down-regulates cell-surface expression of CD4 (Chen et al., 1996). […] Finally, tissue sections of thymi were directly examined for human T cells (using anti-CD3 antibody) and HIV-1 p24 antigen.
The MLNs are closest to the site of HIV-1 infection (i.p), while the PLNs are further away.
Rag2^−/−γc^−/− mice on a BALB/c background (provided by M. Ito; Central Institute for Experimental Animals, Kawasaki, Japan) were bred and maintained under specific pathogen-free conditions in accordance with the guidelines of the animal facility at the Institute for Research in Biomedicine. CL2 MBP (clodronate) was from Roche Diagnostics (Mannheim, Germany). Preparation of liposomes containing CL2 MBP was done as described previously (Van Rooijen and Sanders, 1994). 6-10 week-old mice received 100 ul of clodronate liposomes intraperitoneally (i.p.) 24 hours prior to irradiation using a single sublethal dose of 4.0 Gray (Gy) from a Cesium 137 source (Biobeam 8000, STS GmbH, Braunschweig, Germany) at 3.75 Gy/min. […] CD4^+ T cell engraftment and maintenance in mice was measured by flow cytometry. To obtain peripheral blood cells and plasma, mice were bled from the retro-orbital venous sinus under anesthesia and red blood cells were lysed. When sacrificed, single cell suspensions from organs were prepared. For FACS analysis monoclonal antibodies against the following antigens were used: CD3 (UCHT1), CD4 (13B8.2), CD8 (B9.11), p24 (clone KC57) (all Immunotech/Beckman Coulter, Marseille, France), CD45 (HI30) (Caltag, Burlingame, Calif.). Intracellular staining for p24 was performed on single cell suspensions from mesenteric lymph nodes and thymus following staining with anti-CD3 antibody. Cells were washed, permeabilized, and fixed by treatment with BD Cytofix/Cytoperm (BD Pharmingen) and stained with anti-p24 antibody in BD Permwash solution (BD Pharmingen) following the manufacturer's instructions. Plasma HIV RNA concentrations were determined by Cobas Amplicor RT-PCR assay (Roche Diagnostics, Basel, Switzerland). Immunohistochemical stainings were performed as previously described (Baenziger et al., 2006). To assess nonspecific binding, tissue from untransplanted and uninfected transplanted mice was stained as controls.
Rag2^−/−γc^−/− mice on a BALB/c background (provided by M. Ito; Central Institute for Experimental Animals, Kawasaki, Japan) were bred and maintained under specific pathogen-free conditions in accordance with the guidelines of the animal facility at the Institute for Research in Biomedicine (Bellinzona) and the Swiss Federal Veterinary Office (Bern). […] CD4^+ T cell engraftment and maintenance in mice was measured by flow cytometry. […]

## hT5Cyp: human TRIM5α fused at serine 322 to human cyclophilin A, SEQ ID NO:12
MLN or PLN, CCR5-tropic HIV-1
  p24^+ transduced human T cells: Few if any
n=8 per group
  mean viral load: 1.6×10^5 (+/−1.1×10^5) copies viral RNA/ml plasma
Thymi and lymph nodes
  down-regulation of cell surface CD4: prevented the down-regulation of cell surface CD4
Thymi or mesenteric lymph nodes
  p24^+ transduced human T cells: Few if any
